For 34 molecules, melting point and Ki results are on record in paper PMC6272903, “Synthesis and Structure-Activity Relationship Analysis of 5-HT7 Receptor Antagonists: Piperazin-1-yl Substituted Unfused Heterobiaryls” (Molecules, 2016).

One data set concerns the target T1, human 5-HT7b receptors (Homo sapiens, UniProt P34969).
T1 construct: expressed in transfected cells; host or cells: HEK293
Put plainly: 5-HT7 competition radioligand binding assay ([3H]5-CT). Conditions: HEK293 cells overexpressing human 5-HT7b receptors, at least two independent experiments in triplicate, read-out: Ki ± S.D. 5-HT7 binding affinity. The protocol: Novel scaffold endowed with 5-HT7R activity was identified by screening of the in-house compound library in a single compound concentration of 1 µM in a competition radioligand binding assay using [^3H]5-CT and HEK293 cells overexpressing the human 5-HT7b receptors.

The structures appear in SMILES notation. Several values for one entry are separate records, joined by “and”; a condition that tells them apart may be missing. Identical values can stand only once. Counter-ions that a name gives are not always drawn. Where only a bound is given, the exact number is not on record here.

T1 sequence (P34969 1-432): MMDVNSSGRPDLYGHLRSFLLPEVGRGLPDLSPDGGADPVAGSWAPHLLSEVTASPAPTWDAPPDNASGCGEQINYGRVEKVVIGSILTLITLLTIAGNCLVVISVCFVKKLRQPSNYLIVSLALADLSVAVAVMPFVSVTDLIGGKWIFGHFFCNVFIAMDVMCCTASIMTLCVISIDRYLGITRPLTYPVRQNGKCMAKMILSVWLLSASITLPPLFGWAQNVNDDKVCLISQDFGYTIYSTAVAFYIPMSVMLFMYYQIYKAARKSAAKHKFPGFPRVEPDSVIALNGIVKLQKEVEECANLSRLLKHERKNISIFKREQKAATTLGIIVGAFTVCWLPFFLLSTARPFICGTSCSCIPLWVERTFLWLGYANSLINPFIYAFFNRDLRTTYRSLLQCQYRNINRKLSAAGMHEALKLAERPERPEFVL

`c1cc(-c2ccoc2)nc(N2CCNCC2)n1` (as salt: hydrobromid) [Compound 1, 4-(3-Furyl)-2-(piperazin-1-yl)pyrimidine] returned a melting point of 241 to 242 °C.

As to `CCCN1CCN(c2nccc(-c3ccoc3)n2)CC1` (as salt: hydrobromid) [Compound 4, 4-(3-Furyl)-2-(4-propylpiperazin-1-yl)pyrimidine], the melting point was in the range of 274 to 277 °C.

With `c1ccc(CN2CCN(c3nccc(-c4ccoc4)n3)CC2)cc1` (as salt: hydrobromid) [Compound 5, 2-(4-Benzylpiperazin-1-yl)-4-(3-furyl)pyrimidine], the melting point is > 280 °C.

`CCc1cc(-c2ccoc2)nc(N2CCN(C)CC2)n1` (as salt: hydrobromid) [Compound 12, 4-Ethyl-6-(3-furyl)-2-(4-methylpiperazin-1-yl)pyrimidine] yielded a melting point of 287 to 288 °C.

`CCCCc1cc(-c2ccoc2)nc(N2CCN(C)CC2)n1` (as salt: hydrobromid) [Compound 13, 4-(n-Butyl)-6-(3-furyl)-2-(4-methylpiperazin-1-yl)pyrimidine] registered a melting point of 179 to 180 °C.

Regarding `CCCc1cnc(N2CCN(C)CC2)nc1-c1ccoc1` (as salt: hydrobromid) [Compound 21, 4-(3-Furyl)-2-(4-methylpiperazino)-5-propylpyrimidine], the melting point lay in the range of 206 to 208 °C.

On to `CCCCc1nc(N2CCN(C)CC2)nc(-c2ccoc2)c1CCC` (as salt: hydrobromid) [Compound 22, 4-n-Butyl-6-(3-furyl)-2-(4-methylpiperazino)-5-propylpyrimidine], for which the melting point is 203 °C (dec.).

`Cc1occc1-c1ccnc(N2CCN(C)CC2)n1` (as salt: hydrobromid) [Compound 23, 4-(2-Methyl-3-furyl)-2-(4-methylpiperazin-1-yl)pyrimidine] gave a melting point of 263 to 265 °C.

On to `Cc1cc(-c2ccnc(N3CCN(C)CC3)n2)co1` (as salt: hydrobromid) [Compound 24, 4-(5-Methyl-3-furyl)-2-(4-methylpiperazin-1-yl)pyrimidine], for which the melting point was 275 °C (dec.).

On to `CCCCCCc1cc(-c2coc(C)c2)nc(N2CCN(C)CC2)n1` (as salt: hydrobromid) [Compound 25, 4-n-Hexyl-6-(5-methyl-3-furyl)-2-(4-methylpiperazin-1-yl)pyrimidine], for which the melting point is 242 °C (dec.).

For `Cc1ccc(-c2ccnc(N3CCN(C)CC3)n2)o1` (as salt: hydrobromid) [Compound 29, 4-(5-Methyl-2-furyl)-2-(4-methylpiperazin-1-yl)pyrimidine], the melting point fell in the range of 263 to 265 °C.

On to `CN1CCN(c2nccc(-c3cc4ccccc4o3)n2)CC1` (as salt: hydrobromid) [Compound 36, 4-(Benzofuran-2-yl)-2-(4-methylpiperazin-1-yl)pyrimidine], for which the melting point is > 300 °C.

For `CN1CCN(c2nccc(-c3cc4ccccc4s3)n2)CC1` (as salt: hydrobromid) [Compound 37, 4-(Benzothiophen-2-yl)-2-(4-methylpiperazin-1-yl)pyrimidine], the melting point fell in the range of 299 to 300 °C.

As to `CN1CCCN(c2nccc(-c3ccoc3)n2)CC1` (as salt: hydrobromid) [Compound 42, 4-(3-Furyl)-2-(4-methylhomopiperazin-1-yl)pyrimidine], the melting point fell in the range of 176 to 177 °C.

On to `c1cc(-c2ccoc2)nc(N2CCCCC2)n1` (as salt: hydrobromid) [Compound 43, 4-(3-Furyl)-2-(piperidin-1-yl)pyrimidine], for which the melting point fell in the range of 190 to 191 °C.

`c1cc(-c2ccoc2)nc(NCCCc2ncc[nH]2)n1` (as salt: hydrobromid) [Compound 46, 4-(3-Furyl)-N-[3-(1H-imidazol-2-yl)propyl]pyrimidin-2-amine] yielded a melting point of 234 to 236 °C.

The molecule `Cc1cc(-c2cccs2)cc(N2CCN(C)CC2)n1` (as salt: hydrobromid) [Compound 56, 2-Methyl-6-(4-methylpiperazin-1-yl)-4-(2-thienyl)pyridine] came in with a melting point of 132 to 134 °C.

On to `Cc1cc(-c2ccco2)cc(N2CCN(C)CC2)n1` [Compound 55, 4-(2-Furyl)-2-methyl-6-(4-methylpiperazin-1-yl)pyridine], for which the Ki at human 5-HT7b receptors worked out at 139 ± 22 nM.

As for `Cc1cc(-c2cccs2)cc(N2CCN(C)CC2)n1` [Compound 56, 2-Methyl-6-(4-methylpiperazin-1-yl)-4-(2-thienyl)pyridine], on human 5-HT7b receptors, the Ki came to 117 ± 12 nM.

In the case of `CN1CCN(c2cccc(-c3ccoc3)n2)CC1` [Compound 57, 6-(3-Furyl)-2-(4-methylpiperazin-1-yl)pyridine], the Ki at human 5-HT7b receptors was 8 nM and 11 nM.

For the molecule `CN1CCN(c2cccc(-c3ccsc3)n2)CC1` [Compound 58, 2-(4-Methylpiperazin-1-yl)-6-(3-thienyl)pyridine], the Ki on human 5-HT7b receptors was 79 ± 14 nM.

`CN1CCN(c2cccc(-c3ccco3)n2)CC1` [Compound 59, 2-(2-Furyl)-6-(4-methylpiperazin-1-yl)pyridine]: the Ki at human 5-HT7b receptors is 1140 ± 154 nM.

On to `CN1CCN(c2cccc(-c3ccoc3)c2)CC1` [Compound 60, 1-[3-(3-Furyl)phenyl]-4-methylpiperazine], for which the Ki at human 5-HT7b receptors was 31 ± 4 nM.

In the case of `Cc1cc(-c2ccoc2)cc(N2CCN(C)CC2)c1` [Compound 61, 1-[3-(3-Furyl)-5-methylphenyl]-4-methylpiperazine], at human 5-HT7b receptors, the Ki came out at 37 ± 3 nM.

With `CCCCc1cc(-c2ccoc2)cc(N2CCN(C)CC2)c1` [Compound 62, 1-[3-n-Butyl-5-(3-furyl)phenyl]-4-methylpiperazine], on human 5-HT7b receptors, the Ki stood at 106 ± 9 nM.

Turning to `CN1CCN(c2cccc(-c3ccco3)c2)CC1` [Compound 63, 1-[3-(2-Furyl)phenyl]-4-methylpiperazine], the Ki on human 5-HT7b receptors turned out to be 914 ± 121 nM.

On to `Cc1cc(-c2ccco2)cc(N2CCN(C)CC2)c1` [Compound 64, 1-[3-(2-Furyl)-5-methylphenyl]-4-methylpiperazine], for which the Ki at human 5-HT7b receptors was 312 ± 25 nM.

With `CCCCc1cc(-c2ccco2)cc(N2CCN(C)CC2)c1` [Compound 65, 1-[3-n-Butyl-5-(2-furyl)phenyl]-4-methylpiperazine], the Ki at human 5-HT7b receptors turned out to be 743 ± 66 nM.

As to `CN1CCN(c2cccc(-c3ccsc3)c2)CC1` [Compound 66, 1-Methyl-4-[3-(3-thienyl)phenyl]piperazine], the Ki on human 5-HT7b receptors came out at 342 ± 51 nM.

On to `Cc1cc(-c2ccsc2)cc(N2CCN(C)CC2)c1` [Compound 67, 1-Methyl-4-[3-methyl-5-(3-thienyl)phenyl]piperazine], for which, on human 5-HT7b receptors, the Ki was 47 ± 6 nM.

In the case of `CCCCc1cc(-c2ccsc2)cc(N2CCN(C)CC2)c1` [Compound 68, 1-[3-n-Butyl-5-(3-thienyl)phenyl]-4-methylpiperazine], at human 5-HT7b receptors, the Ki was found to be 263 ± 19 nM.

As to `CN1CCN(c2cccc(-c3cccs3)c2)CC1` [Compound 69, 1-Methyl-4-[3-(2-thienyl)phenyl]piperazine], the Ki at human 5-HT7b receptors came to 542 ± 66 nM.

As for `Cc1cc(-c2cccs2)cc(N2CCN(C)CC2)c1` [Compound 70, 1-Methyl-4-[3-methyl-5-(2-thienyl)phenyl]piperazine], at human 5-HT7b receptors, the Ki was 297 ± 42 nM.

In the case of `CCCCc1cc(-c2cccs2)cc(N2CCN(C)CC2)c1` [Compound 71, 1-[3-n-Butyl-5-(2-thienyl)phenyl]-4-methylpiperazine], the Ki at human 5-HT7b receptors was found to be 734 ± 59 nM.
